The target in one test is T1, E. coli BamA β-barrel (Escherichia coli, UniProt P0A940).
T1 construct: residues 421–810 from strain MG1655; made in house
The test can be described thus: SPR binding to E. coli BamA β-barrel. The conditions noted are these: for KD: SPR, N-terminally biotinylated E. coli BamA β-barrel, single cycle kinetics, average of 2, 3, or 4 replicates ± SD; for kon: pH 7.5, read-out: ka. The text has this:
For SPR, E. coli K-12 BamA (EcBamA; residues 421–810 from strain MG1655), A. baumannii BamA (AbBamA; residues 425–841 from strain ATCC19606) and P. aeruginosa BamA (PaBamA; residues 420–797 from strain PAO1) were synthesized and cloned into pET23b (Millipore Sigma) with a N-terminal Avitag for biotin conjugation. For mRNA display screening, an additional E. coli BamA (421–810) construct (EcBamA′) was designed with an N-terminal His tag, a TEV protease cleavage site, and three point mutations (C690S/C700S/S752C) to allow for site specific biotinylation of residue 752.
For peptide binding assays a Cytiva Series S CAP sensor chip was loaded onto a Biacore T200, and the chip surface was prepared according to the manufacturer’s recommendations. The running buffer was 10 mM HEPES pH 7.5, 150 mM NaCl, 0.1% LDAO. Briefly, the CAP reagent (Cytiva) was diluted 1:10 in HBS-EP buffer (0.01 M HEPES pH 7.4, 0.15 M NaCl, 3 mM EDTA, 0.005% v/v Surfactant P20) and flowed across the chip surface for 300 sec. Biotinylated EcBamA, PaBamA, or AbBamA was then immobilized on the surface by flowing the protein over the chip for 200 sec. Cyclic peptides were injected at concentrations of 12.3, 37, 111, 333 and 1000 nM in single-cycle kinetic mode for 120 sec followed by a 120 sec dissociation period, and after the highest concentration of peptide was injected the dissociation period was 1200 sec. The chip surface was regenerated after each peptide was tested by flowing regeneration solution (8 M guanidine HCl, 1 M NaOH) over the chip surface.

Test [1] deals with E. coli BamA101 (JCM972, MC4100 bamA101). The class given is cell-based, Escherichia coli. The conditions noted are these: in solution, CAMHB broth microdilution. As for the experimental part: (§1) The MICs of the cyclic peptides obtained in the mRNA display screens against E. coli strains JCM158 and JCM972 were measured using broth microdilution in cation-adjusted Mueller−Hinton broth (CAMHB), as recommended by the Clinical and Laboratory Standards Institute. In addition, zone of inhibition (ZOI) assays using JCM158, JCM972, AM710, AM711, MB5746, Acinetobacter baumannii ATCC17987, Pseudomonas aeruginosa MB5919, and Staphylococcus aureus Col were performed to provide a visual display of the relative susceptibility of the strains to the peptides. Briefly, ZOI studies were performed by first growing the bacteria in CAMHB to late exponential phase at 37 °C. Molten CAMHA (CAMHB containing 1.2% agar) was equilibrated to 48 °C in a water bath for 60 min. Cells were then mixed with 30 mL of the molten CAMHA at a 1:1000 dilution and immediately poured onto an Omni-tray plate (NUNC cat# 242811). The agar plate was kept at room temperature for 20 min to solidify and further dried in a biosafety cabinet for ~20 min. Each peptide was dissolved in DMSO, and 2–5 µL aliquots were dispensed onto the top of the plate in a two-fold dilution series in which the peptides were diluted in DMSO. After the liquid was absorbed, plates were incubated at 37 °C for 18 h, and images were acquired using a Hi-Res imaging system.

For test [2], the system named is E. coli WT (JCM158, MC4100 ara^r). The class given is cell-based, Escherichia coli. As to the method:
as §1

In test [3] the test system is EspP(G1123R) assembly in AD202 (bamA+). The experiment in a line: Pulse-chase assembly of slow mutant EspP(G1123R) in AD202. The test is classed as cell-based, Escherichia coli. The conditions noted are these: for effect on EspP(G1123R) assembly when added after the mutant binds to BAM: added 2 min after the start of the chase, peptides 2x MIC, EDTA 2.5 mM, sorbitol 0.8 M.
Protocol: AD202 (MC4100 ompT::kan) transformed with pJH224 [Ptrc-espP(G1123R)] were grown to log phase in M9, the expression of espP(G1123R) was induced by adding 10 µM IPTG, and cells were subjected to pulse-chase labeling. […] Immunoprecipitations were performed using an anti-EspP C-terminal peptide antiserum and proteins were resolved by SDS-PAGE. Representative experiments are shown (left), and the completion of EspP(G1123R) assembly was quantitated by calculating the percent of radiolabeled proEspP(G1123R) that underwent autocatalytic cleavage in untreated cells (control) or cells treated with the indicated peptide 2 min after the start of the chase (red arrows) in three biologically independent experiments (right). […] The data are presented as mean values and error bars represent the SEM. In C 2.5 mM EDTA was added 2 min post-chase, and in E cells were harvested and resuspended in M9 (control) or M9 containing 0.8 M sorbitol 2 min post-chase. A representative experiment is shown (left), and the assembly of EspP(G1123R) in cells treated with EDTA or sorbitol or untreated (control) in three biologically independent experiments was quantitated as in B (right).
To analyze the assembly of OMPs in living cells, overnight cultures of HDB164 (MC4100 ara^R bamA101 ompT::spc) transformed with pJH110 (Ptrc-espPΔ5)[65] or AD202 transformed with pRSL5 (Ptrc-espP)[77] or pJH224 [Ptrc-espP (G1123R)][67] were grown in M9 supplemented with 100 μg/mL ampicillin (M9/ampicillin) at 37 °C. The overnight cultures were washed in M9 and added to 50 ml fresh M9/ampicillin at OD550 = 0.02. When the cultures reached OD550 = 0.2, IPTG (10 μM) was added and the cells were incubated for another 30 min at 37 °C before being subjected to pulse-chase labeling as previously described[66]. At each timepoint 1 ml aliquots were removed and proteins were precipitated by adding 10% (v/v) TCA. […] As a control, an equal amount of DMSO was added. In some experiments, 2.5 mM EDTA, pH 8 was added instead of a cyclic peptide. […]

For test [4], the system named is AD202 transformed with pJH224. The conditions noted are these: 2.5 mM EDTA or peptide at 2x MIC, 5 or 15 min.
Protocol: Overnight cultures of AD202 transformed with pJH224 were grown at 37 °C in M9/ampicillin, washed, and added to 55 ml of fresh medium at OD550 = 0.02. When cultures reached OD550 = 0.2, 10 μM IPTG was added and cultures were incubated at 37 °C for an additional 15 min. Cultures were then divided into five 10 ml aliquots and placed into 15 ml tubes. Cells were pelleted in 15 ml tubes (3000 x g, 15 min, room temperature), resuspended in 1 ml pre-warmed M9 and transferred to 50 ml tubes. […] Cells were then placed into 1.7 ml tubes on ice for 5 min and centrifuged (2900 x g, 6 min, 4 °C). The cell pellet was discarded and the supernatant was centrifuged in a TLA.2 rotor in a Beckman Optima MAX-TL ultracentrifuge (100,000 x g, 30 min, 4 °C). Once again the pellet was discarded, and 5 mL 4x LDS sample buffer was then added to 20 mL of each supernatant (which represents the culture medium of ~0.05 OD equivalents), and molecules located in the culture medium were resolved by SDS-PAGE on 12% Novex Tris-Bis minigels (ThermoFisher) using MES running buffer. LPS was visualized using the Molecular Probes Pro-Q Emerald 300 Lipopolysaccharide Gel Stain Kit (ThermoFisher) following the manufacturer’s instructions.
Test [5] has as its system EspP(G1123R) assembly in AD202 (bamA+). Also on record: method as in PMID 36165532. Particulars: cited from earlier work.
The test system of test [6] is wild-type EspP assembly in AD202. The experiment in a line: Pulse-chase assembly of wild-type EspP in AD202. The class given is cell-based, Escherichia coli. The conditions noted are these: 0.8 M sorbitol 2 min after start of chase, 28 °C.
Protocol: To analyze the assembly of OMPs in living cells, overnight cultures of HDB164 (MC4100 ara^R bamA101 ompT::spc) transformed with pJH110 (Ptrc-espPΔ5)[65] or AD202 transformed with pRSL5 (Ptrc-espP)[77] or pJH224 [Ptrc-espP (G1123R)][67] were grown in M9 supplemented with 100 μg/mL ampicillin (M9/ampicillin) at 37 °C. The overnight cultures were washed in M9 and added to 50 ml fresh M9/ampicillin at OD550 = 0.02. When the cultures reached OD550 = 0.2, IPTG (10 μM) was added and the cells were incubated for another 30 min at 37 °C before being subjected to pulse-chase labeling as previously described[66]. At each timepoint 1 ml aliquots were removed and proteins were precipitated by adding 10% (v/v) TCA. […] As a control, an equal amount of DMSO was added. […] Radioactive proteins were visualized on a Fuji FLA 9000 imager using phoshophorimaging settings, and data was quantitated using Fuji MultiGauge v.
For experiments that involved EspP or EspP derivatives, the accumulated β-barrel was defined as the normalized β-barrel signal, where the normalization factor was (preproEspPsignal + proEspPsignal + β-domainsignal) at the 0 min timepoint for each condition and each experiment. For some experiments that involved EspP or EspP derivatives, the percent cleavage at each timepoint was also measured and was defined as [β-barrel signal /(proEspPsignal + β-barrelsignal)] x 100. […]

≈ marks a conversion by molar mass, not a printed value. Read-outs that look alike come from different tables or passages of the source. Bridge positions count the residues as written; N and C are the ends. Square brackets hold non-standard residues; d marks the D form. Peptide text beside a SMILES is read from it. Gly(NCH2CH2Ph) = O=C(O)CNCCc1ccccc1; NMeF = CN[C@@H](Cc1ccccc1)C(=O)O; Tic = O=C(O)[C@@H]1Cc2ccccc2CN1

On to `CC(C)C[C@@H]1NC(=O)[C@H](Cc2ccccc2)NC(=O)CSC[C@@H](C(=O)NCC(N)=O)NC(=O)[C@H](CC(=O)O)NC(=O)[C@H](Cc2ccccc2)N(C)C(=O)CNC(=O)[C@H](CCCNC(=N)N)NC(=O)[C@H](C(C)C)NC(=O)[C@@H]2CCCN2C(=O)[C@H](CCCNC(=N)N)NC(=O)[C@H](Cc2c[nH]cn2)NC(=O)[C@H](Cc2ccc(O)cc2)NC(=O)[C@H](Cc2ccccc2)N(C)C(=O)[C@H](Cc2c[nH]c3ccccc23)NC1=O` [CP1, F.L.W.MePhe.Y.H.R.P.V.R.G.MePhe.D.C.G] ({CH2CO}-FLW[NMeF]YHRPVRG[NMeF]DCG-NH2; thioether N-14), for which, on E. coli BamA β-barrel, the KD result is on record as “low-nanomolar range”. In addition, in test [1], the “MIC E. coli BamA101” value turned out to be 12.5 µM (≈ 24.6 µg/mL). Besides, the “MIC E. coli WT” value in test [2] (in solution, CAMHB broth microdilution) is > 50 µM.

Regarding `CC(C)[C@@H]1NC(=O)[C@H](CO)NC(=O)[C@H](CCCNC(=N)N)NC(=O)[C@H](CO)NC(=O)[C@@H]2CCCN2C(=O)[C@H](Cc2c[nH]c3ccccc23)NC(=O)[C@@H]2Cc3ccccc3CN2C(=O)[C@H](Cc2c[nH]c3ccccc23)NC(=O)[C@H](CCCNC(=N)N)NC(=O)CNC(=O)[C@H](CO)NC(=O)[C@H](Cc2ccccc2)NC(=O)CSC[C@@H](C(=O)NCC(N)=O)NC(=O)CNC1=O` [CP2, F.S.G.R.W.Tic.W.P.S.R.S.V.G.C.G] ({CH2CO}-FSGRW[Tic]WPSRSVGCG-NH2; thioether N-14), at E. coli BamA β-barrel, the KD entry is “low-nanomolar range” and the kon was 430000 ± 2.9e+10 M⁻¹ s⁻¹. Moreover, the “MIC E. coli BamA101” value in test [1] stood at 6.3 µM (≈ 11.2 µg/mL). For the same molecule, the “MIC E. coli WT” value in test [2] (JCM158, 18 h) is > 50 µM.

Consider `CC(C)C[C@@H]1NC(=O)CN(CCc2ccccc2)C(=O)[C@H](Cc2ccc(O)cc2)NC(=O)[C@H](CCCNC(=N)N)NC(=O)[C@H](CCCNC(=N)N)NC(=O)[C@H](Cc2ccccc2)NC(=O)CSC[C@@H](C(=O)NCC(N)=O)NC(=O)[C@H](Cc2ccc(O)cc2)NC(=O)[C@@H]2Cc3ccccc3CN2C(=O)[C@H](C(C)C)NC(=O)[C@H](Cc2c[nH]c3ccccc23)NC(=O)[C@H](Cc2ccc(O)cc2)NC(=O)[C@H](CC(N)=O)NC(=O)[C@H](CC(=O)O)NC1=O` [CP3, F.R.R.Y.PeGly.L.D.N.Y.W.V.Tic.Y.C.G] ({CH2CO}-FRRY[Gly(NCH2CH2Ph)]LDNYWV[Tic]YCG-NH2; thioether N-14), for which, on E. coli BamA β-barrel, the KD result was “low-nanomolar range” and the kon was 160000 ± 3e+09 M⁻¹ s⁻¹. Moreover, the “MIC E. coli BamA101” value in test [1] came out at 6.3 µM (≈ 13.3 µg/mL). Also, the “MIC E. coli WT” value in test [2] (JCM158, 18 h) was > 50 µM.

As for `O=C(O)CN(CCN(CC(=O)O)CC(=O)O)CC(=O)O` [EDTA], the “effect on EspP(G1123R) assembly, EDTA added prior to synthesis” value in test [3] (2.5 mM EDTA added 1 min or 5 min before the start of the chase) was “accelerates”. Besides, the “effect on EspP(G1123R) assembly when added after the mutant binds to BAM” value in test [3] is reported as “accelerate”. Further, the “release of LPS into the culture medium” value in test [4] is reported as “releasing LPS into the culture medium”.

Consider `NC(N)=NC(=O)CC(Nc1nc(N=C(N)N)nc(NC2CCC(NC(=O)Cn3nnc(-c4ccc(F)cc4)n3)CC2)n1)C1CC1` (centres unmarked) [MRL-494], for which the “effect on EspP(G1123R) assembly when added after the protein binds to BAM” value in test [5] was “inhibit the assembly”.

Consider `OC[C@@H](O)[C@@H](O)[C@H](O)[C@@H](O)CO` [sorbitol], for which the “effect on EspP(G1123R) assembly when added after the mutant binds to BAM” value in test [3] is listed as “accelerate”. The “effect on assembly of wild-type EspP, sorbitol” value in test [6] is given as “slightly delay”.

The values above are taken from PMC11986105, “Antibacterial macrocyclic peptides reveal a distinct mode of BamA inhibition” (Nature Communications, 2025).
